Values joined by “and” are separate entries in the source; they are usually repeats but may differ in a detail not shown here. Identical values can stand only once. “Also recorded” adds a separate entry of the source.
Columns and labels:
HCC (human liver cancer) = assay: PDT with ICG (809 nm laser) in PDOX mouse model; format: in vivo
Excerpt: (§1) We set up a study of PDT with ICG using patient derived orthotopic xenograft (PDOX) mouse model (FIG. 7). In the PDOX model, the mouse liver has human liver cancer. […] We then found the optimal laser wavelength that liver-ICG can absorb with maximum intensity which was 809 nm (FIG. 2). We set up the laser to treat HCC with PDT with the setting numbers in Table 1.

[1] = Optimal laser wavelength that liver-ICG can absorb with maximum intensity; format: physicochemical; details: FIG. 2
Excerpt: as §1

[2] = ICG distribution after administration in patient derived orthotopic xenograft (PDOX) mouse model; format: in vivo
Excerpt: as §1

In the case of CC1(C)C(/C=C/C=C/C=C/C=C2\N(CCCCS(=O)(=O)O)c3ccc4ccccc4c3C2(C)C)=[N+](CCCCS(=O)(=O)[O-])c2ccc3ccccc3c21 [ICG, indocyanine green], the “finding on MRI after treatment” value (HCC (human liver cancer); 2 weeks after treatment, PDOX mouse) is reported as “tumor necrosis”, the “pathologic evaluation of HCC” value (HCC (human liver cancer); specimen after PDT with ICG) is reported as “apoptosis of HCC” and the “optimal laser wavelength that liver-ICG can absorb with maximum intensity” value [1] is reported as 805-815 nm and 809 nm. The ICG localisation ([2]; at 0 hr after ICG administration) was “present in the whole body”, the ICG localisation ([2]; at 6 hrs after ICG administration) was “present in the liver” and the ICG localisation ([2]; at 24 hrs after ICG administration) was “confined to a liver tumor; also recorded: confined in only HCC inside the liver”.

From patent publication US20250065147A1, “SYSTEMS AND METHODS FOR PHOTODYNAMIC THERAPY” (Virginia Commonwealth University, priority 2023, published 2025)
